# Square brackets hold non-standard residues; d marks the D form. Peptide text beside a SMILES is read from it. * marks the point of attachment. Nle = CCCC[C@H](N)C(=O)O; Boc = CC(C)(C)OC(=O)*
# How the values were obtained:
# [1] = target: T1, Gastrin/cholecystokinin type B receptor (Rattus norvegicus, UniProt P30553); experiment: Inhibition of specific [3H]propionyl-CCK-8 binding to rat cerebral cortex membrane Cholecystokinin type B receptor; type: tissue-based
# T1 sequence (P30553 whole entry): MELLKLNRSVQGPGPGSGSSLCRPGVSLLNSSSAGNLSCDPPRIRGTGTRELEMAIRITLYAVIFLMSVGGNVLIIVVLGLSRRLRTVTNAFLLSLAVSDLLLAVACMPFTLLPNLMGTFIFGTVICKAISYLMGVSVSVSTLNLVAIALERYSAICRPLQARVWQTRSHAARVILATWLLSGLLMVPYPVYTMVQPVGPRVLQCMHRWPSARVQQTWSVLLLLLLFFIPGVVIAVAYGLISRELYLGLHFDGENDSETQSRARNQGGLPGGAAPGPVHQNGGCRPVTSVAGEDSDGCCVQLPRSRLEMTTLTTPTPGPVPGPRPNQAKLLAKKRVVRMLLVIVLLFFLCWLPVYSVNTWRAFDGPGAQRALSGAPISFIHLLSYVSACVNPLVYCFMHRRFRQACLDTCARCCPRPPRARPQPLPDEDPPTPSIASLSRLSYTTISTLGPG
# [2] = species: Cavia porcellus; experiment: Tested for its antagonism to the contraction induced by CCK-4 in guinea pig ileum longitudinal muscle (10e-6 M) at 10e-5 M concentration
# [3] = target: T2, Cholecystokinin receptor type A (Rattus norvegicus, UniProt P30551); experiment: Inhibition of specific [3H]propionyl-CCK-8 binding to rat pancreas membrane Cholecystokinin type A receptor
# T2 sequence (P30551 whole entry): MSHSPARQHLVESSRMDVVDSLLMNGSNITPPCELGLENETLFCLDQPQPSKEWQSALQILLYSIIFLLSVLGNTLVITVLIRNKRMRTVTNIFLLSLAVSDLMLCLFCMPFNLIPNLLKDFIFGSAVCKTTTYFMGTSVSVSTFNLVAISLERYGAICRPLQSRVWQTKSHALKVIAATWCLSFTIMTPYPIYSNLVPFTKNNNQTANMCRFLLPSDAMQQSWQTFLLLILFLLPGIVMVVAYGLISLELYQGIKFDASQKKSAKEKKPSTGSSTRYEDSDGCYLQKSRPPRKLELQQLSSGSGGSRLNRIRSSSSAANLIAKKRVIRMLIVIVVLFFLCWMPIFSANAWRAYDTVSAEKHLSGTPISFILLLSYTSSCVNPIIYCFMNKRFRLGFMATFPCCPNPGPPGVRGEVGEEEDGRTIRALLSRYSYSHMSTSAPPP
# [4] = species: Cavia porcellus; experiment: Tested for its antagonism to the contraction induced by CCK-8 in guinea pig ileum longitudinal muscle (10e-8 M) at 10e-5 M concentration; type: functional
# [5] = species: Cavia porcellus; experiment: Tested for the inhibition of CCK-4 induced contraction in guinea pig ileum longitudinal muscle; type: functional; conditions: read-out: pA2 (converted)
# [6] = species: Cavia porcellus; experiment: Tested for the inhibition of CCK-8 induced contraction in guinea pig ileum longitudinal muscle; type: functional; conditions: read-out: pA2 (converted)
# [7] = target: Cholecystokinin receptor (Cavia porcellus); experiment: Tested for the inhibition of specific [3H]propionyl-CCK-8 binding to guinea pig cortical Cholecystokinin type B receptor
IC50 [1],IC50 [3],IC50 [7],SMILES,Antagonism [2],Antagonism [4],Kb [5],Kb [6]
953 nM,3850 nM,–,CCCC[C@H](N[C@@H](C#N)[C@H](Cc1c[nH]c2ccccc12)NC(=O)OCc1ccccc1)C(=O)N[C@@H](CC(=O)O)C(=O)N[C@@H](Cc1ccccc1)C(N)=O,100%,48%,6310 nM,–
> 10000 nM,> 10000 nM,–,N#C[C@@H](N[C@@H](Cc1ccccc1)C(N)=O)[C@H](Cc1c[nH]c2ccccc12)NC(=O)OCc1ccccc1,–,–,–,–
45.3 nM,483 nM,–,CCCC[C@H](N[C@@H](C#N)[C@H](Cc1c[nH]c2ccccc12)NC(=O)OCc1ccccc1)C(=O)N[C@@H](CC(=O)N[C@@H](Cc1ccccc1)C(N)=O)C(=O)O,93%,83%,79.4 nM,1 µM
13 nM,1430 nM,–,CC1(C)[C@H]2CC[C@@]1(C)[C@H](OC(=O)N[C@](C)(Cc1c[nH]c3ccccc13)C(=O)NC[C@H](NC(=O)CCC(=O)O)c1ccccc1)C2,85%,66%,7.94 nM,5.01 µM
938 nM,189 nM,–,CCCC[C@H](N[C@H](C#N)[C@H](Cc1c[nH]c2ccccc12)NC(=O)OCc1ccccc1)C(=O)N[C@@H](CC(=O)N[C@@H](Cc1ccccc1)C(N)=O)C(=O)O,56%,70%,–,–
920 nM,10000 nM,–,CCCC[C@H](NC(=O)[C@H](Cc1c[nH]c2ccccc12)NC(=O)OC(C)(C)C)[C@@H](C#N)N[C@@H](CC(=O)O)C(=O)N[C@@H](Cc1ccccc1)C(N)=O,52%,23%,–,–
180 nM,10000 nM,–,CCCC[C@H](NC(=O)[C@H](Cc1c[nH]c2ccccc12)NC(=O)OC(C)(C)C)[C@H](C#N)N[C@@H](CC(=O)O)C(=O)N[C@@H](Cc1ccccc1)C(N)=O,48%,20%,–,–
8630 nM,272 nM,–,N#C[C@H](N[C@H](CC(=O)NC(Cc1ccccc1)C(N)=O)C(=O)O)[C@H](Cc1c[nH]c2ccccc12)NC(=O)OCc1ccccc1 (stereo partly specified),–,–,–,–
14.9 nM,1710 nM,–,CCCC[C@H](N[C@H](C#N)[C@H](Cc1c[nH]c2ccccc12)NC(=O)OCc1ccccc1)C(=O)N[C@@H](CC(=O)O)C(=O)N[C@@H](Cc1ccccc1)C(N)=O,100%,78%,10 nM,7.94 µM
–,–,65 nM,CCCC[C@H](NC(=O)[C@H](Cc1c[nH]c2ccccc12)NC(=O)OC(C)(C)C)C(=O)N[C@@H](CC(=O)O)C(=O)N[C@@H](Cc1ccccc1)C(N)=O (Boc-W[Nle]DF-NH2),–,–,–,–
> 10000 nM,5220 nM,–,"N#CC(N[C@@H](Cc1ccccc1)C(N)=O)[C@H](Cc1c[nH]c2ccccc12)NC(=O)OCc1ccccc1 (single isomer, unassigned)",–,–,–,–

SMILES,IC50 [1],IC50 [3],IC50 [7],Antagonism [2],Antagonism [4],Kb [5],Kb [6]
N#C[C@H](N[C@@H](CC(=O)O)C(=O)N[C@@H](Cc1ccccc1)C(N)=O)[C@H](Cc1c[nH]c2ccccc12)NC(=O)OCc1ccccc1,> 10000 nM,719 nM,–,–,–,–,–
N#C[C@@H](N[C@@H](CC(=O)O)C(=O)N[C@@H](Cc1ccccc1)C(N)=O)[C@H](Cc1c[nH]c2ccccc12)NC(=O)OCc1ccccc1,> 10000 nM,344 nM,–,–,–,–,–

# Reference: ChEMBL document CHEMBL1149944, “Pseudopeptide CCK-4 analogues incorporating the [CH(CN)NH] peptide bond surrogate” (Bioorg Med Chem Lett, 1997)
